The values below come from patent publication US20260167622A1, “PAN-KRAS DEGRADING AGENT, AND PREPARATION METHOD THEREFOR AND USE THEREOF” (LEADINGTAC PHARMACEUTICAL (SHAOXING) CO., LTD., priority 2022, published 2026).

Each structure is given as a SMILES string.

T1 sequence (P01116 1-188 isoform P01116-2 G12V): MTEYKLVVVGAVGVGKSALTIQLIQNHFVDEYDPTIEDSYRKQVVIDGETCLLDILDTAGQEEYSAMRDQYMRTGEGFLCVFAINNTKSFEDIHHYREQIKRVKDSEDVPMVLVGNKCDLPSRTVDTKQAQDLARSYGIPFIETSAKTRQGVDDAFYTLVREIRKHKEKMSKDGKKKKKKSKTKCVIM

This assay addresses T1, KRAS G12V protein in SW900 cells (Homo sapiens, UniProt P01116, G12V).
T1 construct: endogenous in cells; host or cells: SW900
In words: KRAS degradation assay (Western Blot) in SW900 cells. The format is cell-based. The settings on record: 24 h. An excerpt:
Test Example 5: KRAS G12C, KRAS G12D, KRAS G12V, KRAS G13D, and KRAS WT (Expanded) Degradation Assays
The degradation effect of the compounds on KRAS was investigated on KRAS G12C mutant human non-small cell lung cancer cell NCI-H358, KRAS G12D mutant human metastatic pancreatic cancer cell AsPc-1, KRAS G12D mutant human lung cancer cell A427, KRAS G12V mutant human colorectal cancer cell SW620, KRAS G12V mutant human lung cancer cell SW900, KRAS G13D mutant human colorectal cancer epithelial cell DLD-1, and KRAS WT human gastric cancer cell MKN-1. The specific procedures were as follows: 0.95 mL of cells were seeded into each well of a 24-well cell culture plate to achieve a cell density of 5×10^5 cells/well; and the cell plate was incubated in an incubator at 37° C. with 5% CO2 overnight. Then 50 μL of the compound solution after dilution was added to each of the wells with the corresponding cells, so that the final concentration of the compound was in a range of 0.03-3000 nM. The final concentration of DMSO was 0.25%. After the compounds were added, the cell plate was incubated in an incubator at 37° C. with 5% CO2 for 24 h. The culture medium in the 24-well cell culture plate was then removed, and the plate was washed twice with 1×PBS (KeyGEN). 120 μL of RIPA (strong) lysis buffer (Beyotime) (supplemented with 1 mM phenylmethylsulfonyl fluoride, a protease inhibitor mixture (Beyotime), and a protease phosphatase inhibitor mixture (Beyotime)) was added to lyse adherent SW900 cells at the bottom of the cell culture plate. After the plate was left to stand on ice for 30 min, the protein lysate in each well was transferred to a 1.5 mL centrifuge tube and centrifuged at 15000 g for 20 min at 4° C. The cell lysate supernatants after centrifugation were cryopreserved in a refrigerator at −80° C. for later use.
After the samples of the cell lysate supernatants that had been prepared were thawed from the refrigerator at −80° C., the total protein concentrations of the cell lysates were determined using a BCA protein quantification kit (Tiangen). The total protein concentrations of the samples were then adjusted to 0.5 μg/μL with PBS and 5×SDS-PAGE protein loading buffer (Beyotime), and the samples were incubated in a water bath at 100° C. for 15 min. The samples were then incubated in an ice bath for 5 min and centrifuged at 14000 g for 1 min at 4° C., and the supernatants were mixed well as loading samples for the Western Blot assay. The samples were loaded into wells of a 10% precast gel (KeyGEN) with a loading volume of 10 μL (total protein: 5 μg), a sufficient Tris-MOPS-SDS running buffer (Adamas) was added, and then electrophoresis was performed at a constant voltage of 120 V for 55 min. After the electrophoresis, the proteins on the gel were transferred to PVDF membranes at a constant current of 250 mA for 55 min. After the membrane transfer, the PVDF membranes were incubated in 1× Quick Block blocking buffer (Beyotime)at room temperature for 30 min. After the blocking, the PVDF membranes were separately incubated at 4° C. overnight with the KRAS antibody (Abcam) diluted in a ratio of 1:1000 and the β-actin antibody (Abcam) diluted in a ratio of 1:2000 in 5% BSA as the diluent, and then washed with 1×TBST buffer (2.4 g of Tris, 8.8 g of NaCl, 1.5 mL of Tween 20, with pH adjusted to 7.4, with the volume brought to 1 L) 3 times for 10 min/time. The membranes were incubated with a secondary antibody (Abcam) diluted in 5% BSA at room temperature for 2 h, and then washed with 1×TBST buffer 3 times for 10 min/time. Finally, the membranes were incubated with Clarity Western ECL Substrate (BIO-RAD) for 5 min for luminescence and color development, and a ChemiScope 6200 Touch chemiluminescence imaging system (Clinx) was used for color development and protein mapping. Gray value analysis of the protein maps was performed using the chemiluminescence analysis software (Clinx). […]
On the technique in general: A western blot detects proteins with antibodies after separation by electrophoresis.
A word on the DC50: it is the midpoint of the concentration-degradation curve. Usually Dmax stands for the greatest extent of degradation seen. Read a high Dmax as deep degradation. For the compound `C#Cc1c(F)ccc2cc(O)cc(-c3ncc4c(N5CCC[C@@](C)(O)C5)nc(OCC5(CN6CCC(CN(C)CCC7CCN(C(=O)c8ccc(Cl)c(N9CCC(=O)NC9=O)c8)CC7)CC6)CC5)nc4c3F)c12` [Example 18, (R)-1-(2-chloro-5-(4-(2-(((1-((1-(((7-(8-ethynyl-7-fluoro-3-hydroxynaphthalen-1-yl)-8-fluoro-4-(3-hydroxy-3-methylpiperidin-1-yl)piperidino[4,3-d]pyrimidin-2-yl)oxy)methyl)cyclopropyl)methyl)piperidin-4-yl)methyl)(methyl)amino)ethyl)piperidine-1-carbonyl)phenyl)dihydropyrimidine-2,4(1H,3H)-dione], the half-maximal degradation concentration (DC50) was in the range of 100 to 500 nM and the Dmax is 50 to 80%.

In the case of `C#Cc1c(F)ccc2cc(O)cc(-c3ncc4c(NC5CC5)nc(OCC5(CN6CCN(CC7CCC8(CC7)CCN(C(=O)c7ccc(OC)c(N9CCC(=O)NC9=O)c7)CC8)CC6)CC5)nc4c3F)c12` [Example 31, 1-(5-(9-((4-((1-(((4-(cyclopropylamino)-7-(8-ethynyl-7-fluoro-3-hydroxynaphthalen-1-yl)-8-fluoropyrido[4,3-d]pyrimidin-2-yl)oxy)methyl)cyclopropyl)methyl)piperazin-1-yl)methyl)-3-azaspiro[5.5]undecane-3-carbonyl)-2-methoxyphenyl)dihydropyrimidine-2,4(1H,3H)-dione], the DC50 lay within 50 to 100 nM and the Dmax lay within 50 to 80%.

As for `C#Cc1c(F)ccc2cc(O)cc(-c3ncc4c(NC(C)(C)C)nc(OCC5(CN6CCN(CC7CCC8(CC7)CCN(C(=O)c7ccc(OC)c(N9CCC(=O)NC9=O)c7)CC8)CC6)CC5)nc4c3F)c12` [Example 32, 1-(5-(9-((4-((1-(((4-(tert-butylamino)-7-(8-ethynyl-7-fluoro-3-hydroxynaphthalen-1-yl)-8-fluoropyrido[4,3-d]pyrimidin-2-yl)oxy)methyl)cyclopropyl)methyl)piperazin-1-yl)methyl)-3-azaspiro[5.5]undecane-3-carbonyl)-2-methoxyphenyl)dihydropyrimidine-2,4(1H,3H)-dione], the DC50 was not above 50 nM and the Dmax lay within 50 to 80%.
